We go through three compounds from paper PMC4457528, “Identification of Novel Small Molecule Inhibitors of Oncogenic RET Kinase” (PLoS ONE, 2015).

What all share (assay): KinomeScan kinase panel, single concentration 10 µM
Format in all cases: binding

Assay [1] concerns the target T1, KinomeScan kinase panel (Homo sapiens, UniProt Q86UX6).
T1 construct: purchased DiscoveRx (KinomeScan)
The conditions noted are these: kinase YANK3; 10 µM; read-out: score (%).

Assay [2] deals with T2, KinomeScan kinase panel (Homo sapiens, UniProt P10721, D816V).
T2 construct: purchased DiscoveRx (KinomeScan)
The conditions noted are these: KIT(D816V), 10 µM; read-out: score (%).

Assay [3] addresses T3, KinomeScan kinase panel (Homo sapiens, UniProt P00533, L858R).
T3 construct: purchased DiscoveRx (KinomeScan)
The conditions noted are these: EGFR(L858R), 10 µM.

For assay [4], the target named is T4, KinomeScan kinase panel (Homo sapiens, UniProt P48736).
T4 construct: purchased DiscoveRx (KinomeScan)
The conditions noted are these: PIK3CG, 10 µM; read-out: score (%).

In assay [5] the target is T5, KinomeScan kinase panel (Homo sapiens, UniProt P36888, N841I).
T5 construct: purchased DiscoveRx (KinomeScan)
T5 sequence (P36888 27-993 N841I): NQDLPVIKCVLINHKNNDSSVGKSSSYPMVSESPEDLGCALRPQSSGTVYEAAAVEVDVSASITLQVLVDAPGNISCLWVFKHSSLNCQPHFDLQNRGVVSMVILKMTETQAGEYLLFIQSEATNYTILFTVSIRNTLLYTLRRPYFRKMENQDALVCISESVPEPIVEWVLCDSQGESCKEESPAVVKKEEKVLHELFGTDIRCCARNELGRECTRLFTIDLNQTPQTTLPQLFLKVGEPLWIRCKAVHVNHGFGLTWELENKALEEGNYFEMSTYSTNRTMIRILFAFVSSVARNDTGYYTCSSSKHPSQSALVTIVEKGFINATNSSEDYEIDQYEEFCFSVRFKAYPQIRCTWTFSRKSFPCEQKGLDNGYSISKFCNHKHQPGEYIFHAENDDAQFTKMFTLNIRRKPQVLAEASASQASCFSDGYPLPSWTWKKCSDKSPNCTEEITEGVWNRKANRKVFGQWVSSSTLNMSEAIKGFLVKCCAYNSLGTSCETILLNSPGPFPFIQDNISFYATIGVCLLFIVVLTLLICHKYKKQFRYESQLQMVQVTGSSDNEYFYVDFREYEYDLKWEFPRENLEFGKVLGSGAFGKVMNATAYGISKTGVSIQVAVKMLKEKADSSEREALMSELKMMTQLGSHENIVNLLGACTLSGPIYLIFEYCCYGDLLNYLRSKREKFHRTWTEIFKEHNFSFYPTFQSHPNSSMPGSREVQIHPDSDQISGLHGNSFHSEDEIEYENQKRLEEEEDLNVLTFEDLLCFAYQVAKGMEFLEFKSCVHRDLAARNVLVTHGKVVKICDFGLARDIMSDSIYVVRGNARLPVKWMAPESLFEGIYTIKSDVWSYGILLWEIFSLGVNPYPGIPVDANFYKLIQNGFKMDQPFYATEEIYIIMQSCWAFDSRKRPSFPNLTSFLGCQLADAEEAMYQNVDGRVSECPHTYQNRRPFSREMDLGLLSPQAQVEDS
The conditions noted are these: FLT3(N841I), 10 µM; read-out: score (%).

Assay [6] addresses T6, KinomeScan kinase panel (Homo sapiens, UniProt O14578).
T6 construct: purchased DiscoveRx (KinomeScan)
The conditions noted are these: CIT, 10 µM.

The target of assay [7] is T7, KinomeScan kinase panel (Homo sapiens, UniProt Q8TDX7).
T7 construct: purchased DiscoveRx (KinomeScan)
The conditions noted are these: NEK7, 10 µM; read-out: score (%).

Assay [8] deals with T8, KinomeScan kinase panel (Homo sapiens, UniProt Q12852).
T8 construct: purchased DiscoveRx (KinomeScan)
T8 sequence (Q12852 1-859): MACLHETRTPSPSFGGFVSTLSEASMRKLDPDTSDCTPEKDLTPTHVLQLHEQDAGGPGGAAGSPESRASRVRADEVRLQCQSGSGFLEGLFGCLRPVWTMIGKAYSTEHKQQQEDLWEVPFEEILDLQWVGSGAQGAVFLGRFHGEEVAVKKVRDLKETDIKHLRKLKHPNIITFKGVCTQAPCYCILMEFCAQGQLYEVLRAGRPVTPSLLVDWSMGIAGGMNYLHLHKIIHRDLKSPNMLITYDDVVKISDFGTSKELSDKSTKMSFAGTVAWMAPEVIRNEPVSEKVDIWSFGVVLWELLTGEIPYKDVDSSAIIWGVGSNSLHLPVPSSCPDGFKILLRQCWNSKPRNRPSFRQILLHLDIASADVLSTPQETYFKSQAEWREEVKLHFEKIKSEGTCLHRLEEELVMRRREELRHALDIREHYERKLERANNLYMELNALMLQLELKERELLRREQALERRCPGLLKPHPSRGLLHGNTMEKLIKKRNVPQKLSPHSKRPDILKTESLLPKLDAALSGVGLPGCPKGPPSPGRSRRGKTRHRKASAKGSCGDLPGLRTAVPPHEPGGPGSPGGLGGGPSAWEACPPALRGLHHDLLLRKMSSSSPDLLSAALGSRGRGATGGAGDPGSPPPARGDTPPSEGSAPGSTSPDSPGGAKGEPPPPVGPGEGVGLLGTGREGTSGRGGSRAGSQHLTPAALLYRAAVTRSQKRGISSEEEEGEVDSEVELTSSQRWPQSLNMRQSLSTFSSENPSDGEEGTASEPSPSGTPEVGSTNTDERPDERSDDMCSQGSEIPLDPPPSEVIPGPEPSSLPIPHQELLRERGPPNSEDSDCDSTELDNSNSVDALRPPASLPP
The conditions noted are these: DLK, 10 µM.

Assay [9] addresses T9, KinomeScan kinase panel (Homo sapiens, UniProt Q8N752).
T9 construct: purchased DiscoveRx (KinomeScan)
T9 sequence (Q8N752 1-337): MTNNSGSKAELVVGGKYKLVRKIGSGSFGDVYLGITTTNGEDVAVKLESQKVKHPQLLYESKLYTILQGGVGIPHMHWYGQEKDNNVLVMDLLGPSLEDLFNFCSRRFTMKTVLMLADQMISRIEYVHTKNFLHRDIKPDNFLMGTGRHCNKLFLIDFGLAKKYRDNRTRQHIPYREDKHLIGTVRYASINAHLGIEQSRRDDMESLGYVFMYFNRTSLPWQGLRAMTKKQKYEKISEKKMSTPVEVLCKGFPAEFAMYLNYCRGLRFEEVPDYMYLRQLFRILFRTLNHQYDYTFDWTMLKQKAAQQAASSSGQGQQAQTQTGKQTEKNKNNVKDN
The conditions noted are these: CSNK1A1L, 10 µM; read-out: score (%).

T6 sequence (O14578 whole entry): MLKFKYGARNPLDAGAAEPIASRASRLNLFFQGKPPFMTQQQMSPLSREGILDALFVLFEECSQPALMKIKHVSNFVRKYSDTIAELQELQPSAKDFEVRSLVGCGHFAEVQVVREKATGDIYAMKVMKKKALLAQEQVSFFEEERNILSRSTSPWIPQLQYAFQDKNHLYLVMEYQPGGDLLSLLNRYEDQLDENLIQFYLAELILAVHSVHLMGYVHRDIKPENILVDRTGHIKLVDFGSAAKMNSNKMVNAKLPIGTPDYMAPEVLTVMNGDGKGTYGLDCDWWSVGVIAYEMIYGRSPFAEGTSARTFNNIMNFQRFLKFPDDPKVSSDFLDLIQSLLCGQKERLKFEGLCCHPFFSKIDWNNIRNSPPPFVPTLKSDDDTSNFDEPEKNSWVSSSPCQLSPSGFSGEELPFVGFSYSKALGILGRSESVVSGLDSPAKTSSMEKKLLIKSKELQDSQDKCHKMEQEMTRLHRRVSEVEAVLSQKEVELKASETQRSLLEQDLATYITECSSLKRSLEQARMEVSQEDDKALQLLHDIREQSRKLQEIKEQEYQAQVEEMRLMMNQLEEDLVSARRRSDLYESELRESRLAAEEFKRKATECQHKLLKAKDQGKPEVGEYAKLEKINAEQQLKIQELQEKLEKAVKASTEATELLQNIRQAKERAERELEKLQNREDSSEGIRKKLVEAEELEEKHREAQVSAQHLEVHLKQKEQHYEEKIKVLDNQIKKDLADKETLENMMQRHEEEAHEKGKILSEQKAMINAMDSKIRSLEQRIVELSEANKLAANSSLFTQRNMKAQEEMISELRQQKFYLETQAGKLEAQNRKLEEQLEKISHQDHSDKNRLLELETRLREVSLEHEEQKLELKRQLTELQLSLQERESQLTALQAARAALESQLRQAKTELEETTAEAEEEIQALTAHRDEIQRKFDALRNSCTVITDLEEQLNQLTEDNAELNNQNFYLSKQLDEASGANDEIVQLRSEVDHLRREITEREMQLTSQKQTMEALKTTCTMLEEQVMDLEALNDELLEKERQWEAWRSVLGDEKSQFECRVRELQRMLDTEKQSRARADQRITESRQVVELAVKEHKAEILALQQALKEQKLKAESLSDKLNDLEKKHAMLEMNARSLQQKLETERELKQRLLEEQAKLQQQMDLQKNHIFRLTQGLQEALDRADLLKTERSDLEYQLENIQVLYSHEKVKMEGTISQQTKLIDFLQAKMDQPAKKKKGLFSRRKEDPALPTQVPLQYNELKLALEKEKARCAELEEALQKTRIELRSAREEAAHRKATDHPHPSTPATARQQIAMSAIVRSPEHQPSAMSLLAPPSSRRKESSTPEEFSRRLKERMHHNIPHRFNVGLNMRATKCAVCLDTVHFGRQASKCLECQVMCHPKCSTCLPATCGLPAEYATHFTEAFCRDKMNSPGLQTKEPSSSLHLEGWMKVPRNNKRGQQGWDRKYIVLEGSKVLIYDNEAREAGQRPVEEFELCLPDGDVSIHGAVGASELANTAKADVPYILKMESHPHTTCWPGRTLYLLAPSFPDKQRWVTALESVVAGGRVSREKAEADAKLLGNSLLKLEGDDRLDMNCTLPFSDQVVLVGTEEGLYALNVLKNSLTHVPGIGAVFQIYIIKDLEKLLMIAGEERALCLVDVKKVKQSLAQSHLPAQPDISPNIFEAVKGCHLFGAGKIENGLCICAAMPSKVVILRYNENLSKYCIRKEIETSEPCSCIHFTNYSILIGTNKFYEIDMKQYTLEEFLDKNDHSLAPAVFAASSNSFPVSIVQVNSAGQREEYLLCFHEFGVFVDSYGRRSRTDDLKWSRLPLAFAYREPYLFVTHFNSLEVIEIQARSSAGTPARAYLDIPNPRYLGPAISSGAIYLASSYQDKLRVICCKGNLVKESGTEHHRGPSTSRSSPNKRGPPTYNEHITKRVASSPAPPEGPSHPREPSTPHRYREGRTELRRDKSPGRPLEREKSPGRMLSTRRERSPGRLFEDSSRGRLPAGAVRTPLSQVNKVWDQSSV
T7 sequence (Q8TDX7 whole entry): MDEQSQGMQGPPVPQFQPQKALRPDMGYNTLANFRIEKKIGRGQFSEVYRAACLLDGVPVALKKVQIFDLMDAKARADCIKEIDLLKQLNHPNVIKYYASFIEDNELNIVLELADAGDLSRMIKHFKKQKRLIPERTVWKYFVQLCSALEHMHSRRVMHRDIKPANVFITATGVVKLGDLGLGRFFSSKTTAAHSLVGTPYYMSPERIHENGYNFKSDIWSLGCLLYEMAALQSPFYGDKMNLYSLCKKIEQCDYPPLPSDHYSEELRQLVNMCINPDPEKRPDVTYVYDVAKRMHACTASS
T3 sequence (P00533 25-1210 L858R): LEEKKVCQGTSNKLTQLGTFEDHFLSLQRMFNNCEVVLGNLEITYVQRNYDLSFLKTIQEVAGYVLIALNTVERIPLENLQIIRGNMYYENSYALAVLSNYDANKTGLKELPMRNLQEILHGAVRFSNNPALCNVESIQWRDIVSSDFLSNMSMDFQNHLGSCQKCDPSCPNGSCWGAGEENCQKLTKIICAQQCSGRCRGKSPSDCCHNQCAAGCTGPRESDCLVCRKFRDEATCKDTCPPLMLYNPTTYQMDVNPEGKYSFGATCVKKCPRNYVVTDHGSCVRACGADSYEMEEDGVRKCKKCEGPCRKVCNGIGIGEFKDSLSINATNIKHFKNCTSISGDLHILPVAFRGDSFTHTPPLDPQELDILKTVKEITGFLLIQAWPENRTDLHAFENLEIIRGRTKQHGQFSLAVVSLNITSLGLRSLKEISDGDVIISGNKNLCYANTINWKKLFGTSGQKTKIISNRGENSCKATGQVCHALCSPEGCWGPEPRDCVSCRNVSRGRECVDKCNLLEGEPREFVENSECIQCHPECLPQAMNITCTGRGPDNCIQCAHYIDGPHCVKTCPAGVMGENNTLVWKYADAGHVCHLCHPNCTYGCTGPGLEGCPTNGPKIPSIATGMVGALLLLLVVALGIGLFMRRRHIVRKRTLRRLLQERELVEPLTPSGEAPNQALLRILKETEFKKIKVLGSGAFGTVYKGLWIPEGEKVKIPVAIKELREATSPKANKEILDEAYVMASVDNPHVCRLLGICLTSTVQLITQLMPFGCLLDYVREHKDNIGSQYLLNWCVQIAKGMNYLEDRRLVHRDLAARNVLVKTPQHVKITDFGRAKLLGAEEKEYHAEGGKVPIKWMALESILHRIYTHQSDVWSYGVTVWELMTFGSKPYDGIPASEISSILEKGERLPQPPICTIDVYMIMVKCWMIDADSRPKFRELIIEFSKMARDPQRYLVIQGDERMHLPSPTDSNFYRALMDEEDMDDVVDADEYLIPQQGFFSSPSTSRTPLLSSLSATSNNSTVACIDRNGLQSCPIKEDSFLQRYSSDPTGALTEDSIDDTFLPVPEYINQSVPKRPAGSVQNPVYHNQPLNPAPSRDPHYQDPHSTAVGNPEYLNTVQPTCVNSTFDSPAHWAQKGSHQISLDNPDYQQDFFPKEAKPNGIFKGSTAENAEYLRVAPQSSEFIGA
T1 sequence (Q86UX6 whole entry): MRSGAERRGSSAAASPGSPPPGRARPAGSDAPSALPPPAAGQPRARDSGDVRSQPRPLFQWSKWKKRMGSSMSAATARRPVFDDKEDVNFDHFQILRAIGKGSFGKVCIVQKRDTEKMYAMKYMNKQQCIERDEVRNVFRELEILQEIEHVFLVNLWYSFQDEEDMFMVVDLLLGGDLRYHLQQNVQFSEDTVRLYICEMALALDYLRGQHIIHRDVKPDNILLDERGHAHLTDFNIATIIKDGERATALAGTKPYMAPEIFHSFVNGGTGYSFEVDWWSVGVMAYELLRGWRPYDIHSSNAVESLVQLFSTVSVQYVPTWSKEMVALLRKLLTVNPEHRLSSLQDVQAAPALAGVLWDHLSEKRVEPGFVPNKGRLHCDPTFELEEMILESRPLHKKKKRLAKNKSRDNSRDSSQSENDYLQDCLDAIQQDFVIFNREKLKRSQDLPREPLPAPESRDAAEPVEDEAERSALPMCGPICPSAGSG
T4 sequence (P48736 whole entry): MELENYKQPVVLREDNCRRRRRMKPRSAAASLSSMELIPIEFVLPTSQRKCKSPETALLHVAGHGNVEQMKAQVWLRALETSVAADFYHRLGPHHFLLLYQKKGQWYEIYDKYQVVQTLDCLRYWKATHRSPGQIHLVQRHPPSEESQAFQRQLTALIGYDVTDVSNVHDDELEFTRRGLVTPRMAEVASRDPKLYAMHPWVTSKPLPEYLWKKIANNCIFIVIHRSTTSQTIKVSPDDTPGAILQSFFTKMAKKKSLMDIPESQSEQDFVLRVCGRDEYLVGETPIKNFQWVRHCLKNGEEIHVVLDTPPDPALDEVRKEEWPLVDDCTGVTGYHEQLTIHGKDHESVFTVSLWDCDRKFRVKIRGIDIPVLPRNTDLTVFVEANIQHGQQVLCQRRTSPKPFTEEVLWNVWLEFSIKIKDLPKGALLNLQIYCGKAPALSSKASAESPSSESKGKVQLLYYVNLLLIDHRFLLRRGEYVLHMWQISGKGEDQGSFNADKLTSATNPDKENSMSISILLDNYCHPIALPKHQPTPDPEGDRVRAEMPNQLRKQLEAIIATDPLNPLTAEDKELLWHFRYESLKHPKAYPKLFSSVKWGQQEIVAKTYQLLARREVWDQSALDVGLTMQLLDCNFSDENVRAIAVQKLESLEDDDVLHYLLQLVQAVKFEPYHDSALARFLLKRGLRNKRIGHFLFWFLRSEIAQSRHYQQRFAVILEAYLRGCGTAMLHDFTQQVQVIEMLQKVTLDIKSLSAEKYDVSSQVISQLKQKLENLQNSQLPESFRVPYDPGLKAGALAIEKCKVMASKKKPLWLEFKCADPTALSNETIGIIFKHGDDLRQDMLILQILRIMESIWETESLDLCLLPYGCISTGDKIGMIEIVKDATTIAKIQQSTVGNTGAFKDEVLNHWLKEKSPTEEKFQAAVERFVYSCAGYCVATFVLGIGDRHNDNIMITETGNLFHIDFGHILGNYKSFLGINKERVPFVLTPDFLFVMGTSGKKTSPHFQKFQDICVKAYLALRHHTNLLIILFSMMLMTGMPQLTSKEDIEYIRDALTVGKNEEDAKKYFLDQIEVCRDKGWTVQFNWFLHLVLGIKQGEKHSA

With `CCN1CCN(Cc2ccc(NC(=O)c3ccc(C)c(NC(=O)c4cncc(-c5cccs5)c4)c3)cc2C(F)(F)F)CC1` [ALW-II-41-27], the remaining binding at 10 µM at KinomeScan kinase panel [1] was greater than 30%; at KinomeScan kinase panel [2], 0.75%; on KinomeScan kinase panel [4], greater than 30%; on KinomeScan kinase panel [5], 0.75%; on KinomeScan kinase panel [7], greater than 30%; at KinomeScan kinase panel [9], greater than 30%. Further, the “score (%)” value was found to be 0.25% on KinomeScan kinase panel [3], 14% at KinomeScan kinase panel [6] and 28% on KinomeScan kinase panel [8].
With `CCN1CCN(Cc2ccc(NC(=O)c3ccc(C)c(/C=C/c4cnc5[nH]ccc5c4Cl)c3)cc2C(F)(F)F)CC1` [HG-6-63-01, (E)-3-(2-(4-chloro-1H-pyrrolo[2,3-b]pyridin-5-yl)vinyl)-N-(4-((4-ethylpiperazin-1-yl)methyl)-3-(trifluoromethyl)phenyl)-4-methylbenzamide], the remaining binding at 10 µM at KinomeScan kinase panel [1] was greater than 30%; on KinomeScan kinase panel [2] it was 0.3%; at KinomeScan kinase panel [4], greater than 30%; at KinomeScan kinase panel [5], 0.15%; on KinomeScan kinase panel [7], greater than 30%; on KinomeScan kinase panel [9] it was greater than 30%. For the same compound, the “score (%)” value at KinomeScan kinase panel [3] is listed as 0.4%; on KinomeScan kinase panel [6], 0.2%; on KinomeScan kinase panel [8], 5.5%.
With `CCN1CCN(Cc2ccc(NC(=O)c3ccc(C)c(C#Cc4cccnc4)c3)cc2C(F)(F)F)CC1` [XMD15-44], the remaining binding at 10 µM on KinomeScan kinase panel [1] was 75%; on KinomeScan kinase panel [2], 2%; on KinomeScan kinase panel [4] it was 100%; on KinomeScan kinase panel [5], 0%; at KinomeScan kinase panel [7] it was 88%; at KinomeScan kinase panel [9], greater than 30%. The “score (%)” value at KinomeScan kinase panel [3] is given as 4%; on KinomeScan kinase panel [6], 0%; on KinomeScan kinase panel [8], 9.8%.
